Experimental data as given in patent US6486201B1, “Agarofuan derivatives, their preparation, pharmaceutical composition containing them and their use as medicine” (Institute of Materia Medica, Chinese Academy of Medical …, priority 1998, dated 2002).
Each block holds one molecule with its values, some of them ahead of it.

Legend:
[1] = tested on: Wistar rats; test: Social interaction test on rats; assay type: in vivo, rat; conditions: mean ± SD; for total time of interaction, 0-9 (minutes): high illuminance unfamiliar conditions (HU); for interaction time (sec. in 9 min): 2 mg/kg ip, HU
Protocol: The rats (Wistar, 160±20 g) for experiment were individually housed in chambers (55×55×40 cm), and handling adaptability and injection training were carried out twice a day 2 weeks before experiment. One day before experiment, the rats were weighed, labeled and grouped at random in pairs but still separated-until experiment. In experiment, 8 pairs of rats were given AF-5 in 2% lecithin (2% lecithin as control), and the total time of interaction was recorded including smelling, licking, leaning against, grabbing, chasing, biting, following, kicking, hitting etc. The experiment conditions were high illuminance with unfamiliar conditions (HU), low illuminance with unfamiliar conditions, high illuminance with familiar conditions and low illuminance with familiar conditions T-test was used to determine the significance between the test group and control group (Table 3, 4).

[2] = tested on: Wistar rats; test: Elevated plus maze test on rats; assay type: in vivo, rat; conditions: for total time of staying on the opened arm (sec. in 5 min.): in 2% lecithin, n 12
Source text: The elevated plus-maze test has been used by Pellow, S. And File, SE. for anti-anxiety model in rats. It is one of the most widely used models for anxiolytics. The elevated plus maze has two cross arms, one is an opened arm (50*10 cm, length, width), another is a closed arm (50×10×40 cm, length, width, height) and the maze is 50 cm above the floor during experiment. The rat for experiment is put on the opening at the cross point (10×10) of the two arms, and may freely choose to enter either opened or closed arm.
Wistar rats of 160±20 g body weight were used, and divided randomly into 8 groups, 12 in each group. Handling adaptability training was carried out one week before the experiment. In the experiment, AF-5 in 2% lecithin of the doses listed in Table 1 was given to rats which were fasted for 12 hours before experiment. After administration, the rat was put on the center opening of the elevated plus headed to opened arm, and times of entering the opened arm, total time of staying on the opened arm, and times of shuttling inside the closed arm were recorded.

[3] = tested on: mice; test: Single dose toxicity in mice; assay type: in vivo
Source text: One week alive rate was 100%. The possible durable dosage was 2.4 g/kg by P.O. and two week alive rate was 100% at this dosage.

[4] = tested on: Wistar rats; test: Elevated plus maze test on rats; assay type: in vivo, rat; conditions: 32 mg/kg ip, in 2% lecithin, mean ± SD, n 4
[5] = tested on: Kunming mice; test: Forced swimming test on mice (anti-depression activity); assay type: in vivo, mouse; conditions: for time of immobile phase (sec/4 min): mean ± SD
Protocol: The experiment used Kunming mice of China, male, 18-21 g of body weight. […]
The water in experiment vessel was 12 cm in depth, 12.5 cm in diameter and kept at 26° C. Each mouse was put in the water and forced to swim for 6 min in which total immobile time in the last 4 min was recorded, and the significance between experiment group and control group was tested by T value (Table 5).

[6] = 2 mg/kg ip, time 5 minutes, mean ± SE
[7] = 2 mg/kg ip, time 15 minutes, mean ± SE
[8] = 2 mg/kg ip, time 30 minutes, mean ± SE
[9] = 2 mg/kg ip, time 60 minutes, mean ± SE
[10] = 2 mg/kg ip, time 90 minutes, mean ± SE

SMILES: CCCCC1=CCC[C@@]2(C)CC[C@@H]3C[C@]12OC3(C)C [AF-5, (1R,6S,9R)6,10,10-Trimethyl-2-butyl-11-oxatricyclo[7.2.1.0^1,6]dodec-2-ene]
- total time of interaction, 0-9 (minutes) ([1]; 0.125 mg/kg): 1.93 min
- total time of interaction, 0-9 (minutes) ([1]; 0.25 mg/kg): 2.28 min
- total time of interaction, 0-9 (minutes) ([1]; 0.5 mg/kg): 3.65 min
- total time of interaction, 0-9 (minutes) ([1]; 1.0 mg/kg): 4.02 min
- interaction time (sec. in 9 min) ([1]; time 5 minutes): 98 sec. in 9 min
- interaction time (sec. in 9 min) ([1]; time 15 minutes): 143 sec. in 9 min
- interaction time (sec. in 9 min) ([1]; time 30 minutes): 103 sec. in 9 min
- interaction time (sec. in 9 min) ([1]; time 60 minutes): 166 sec. in 9 min
- interaction time (sec. in 9 min) ([1]; time 90 minutes): 112 sec. in 9 min
- total time of interaction, 0-9 (minutes) ([1]; 2.0 mg/kg): 3.25 min
- total time of interaction, 0-9 (minutes) ([1]; 4.0 mg/kg): 3.23 min
- Times of shuttling ([2]; 0.5 mg/kg ip, 5 min, closed arm, mean ± SD): 2.5
- total time of staying on the opened arm (sec. in 5 min.) ([2]; 0.5 mg/kg ip, 5 min, mean ± SD): 23 sec. in 5 min.
- Times of shuttling ([2]; 1 mg/kg ip, 5 min, closed arm, mean ± SD): 2.8
- total time of staying on the opened arm (sec. in 5 min.) ([2]; 1 mg/kg ip, 5 min, mean ± SD): 25 + sec. in 5 min.
- Times of shuttling ([2]; 2 mg/kg ip, 5 min, closed arm, mean ± SD): 2.8
- total time of staying on the opened arm (sec. in 5 min.) ([2]; 2 mg/kg ip, 5 min, mean ± SD): 36 sec. in 5 min.
- Time in opened arm [2, 6]: 4.4
- Times of shuttling [2, 6]: 3.0
- Time in opened arm [2, 7]: 6.1
- Times of shuttling [2, 7]: 4.1
- Time in opened arm [2, 8]: 7.9
- Times of shuttling [2, 8]: 6.6
- Time in opened arm [2, 9]: 20.8
- Times of shuttling [2, 9]: 5.6
- Time in opened arm [2, 10]: 1.27
- Times of shuttling [2, 10]: 3.7
- Times of shuttling ([2]; 4 mg/kg ip, 5 min, closed arm, mean ± SD): 2.3
- total time of staying on the opened arm (sec. in 5 min.) ([2]; 4 mg/kg ip, 5 min, mean ± SD): 30 sec. in 5 min.
- Times of shuttling ([2]; 8 mg/kg ip, 5 min, closed arm, mean ± SD): 1.3
- total time of staying on the opened arm (sec. in 5 min.) ([2]; 8 mg/kg ip, 5 min, mean ± SD): 14 sec. in 5 min.
- Times of shuttling ([2]; 16 mg/kg ip, 5 min, closed arm, mean ± SD): 4.2
- total time of staying on the opened arm (sec. in 5 min.) ([2]; 16 mg/kg ip, 5 min, mean ± SD): 9.8 sec. in 5 min.
- Times of shuttling ([2]; 32 mg/kg ip, 5 min, closed arm, mean ± SD): 3.0
- anti-anxiety activity in elevated plus maze test (in words) ([2]; rats, dose-effect): antianxiety activity with a wide dosage range
- observed reactions after single dose ([3]; intravenous injection 500 mg, mice): effect of calming, lying down, decreasing alarm reaction and without other abnormal reactions
- toxicity in single dose toxicity test (in words) ([3]; mice): low toxicity and high safety coefficient
- possible durable dosage ([3]; mouse, in vivo, po, 2 week): 2.4 g/kg
- total time of staying on the opened arm (sec. in 5 min.) [4]: 9.6 sec. in 5 min.
- time of immobile phase (sec/4 min) ([5]; P.O. three times a day (24, 5, 0.5 hours before experiment), 0.5 mg/kg): 90 ± 25 sec/4 min
- time of immobile phase (sec/4 min) ([5]; P.O. three times a day (24, 5, 0.5 hours before experiment), 1.5 mg/kg): 60 ± 30 sec/4 min
- time of immobile phase (sec/4 min) ([5]; P.O. three times a day (24, 5, 0.5 hours before experiment), 5.0 mg/kg): 83 ± 35 sec/4 min
- time of immobile phase (sec/4 min) ([5]; P.O. three times a day (24, 5, 0.5 hours before experiment), 15.0 mg/kg): 74 ± 41 sec/4 min
- time of immobile phase (sec/4 min) ([5]; P.O., s.i.d. × 21 days, 5.0 mg/kg): 84 ± 41 sec/4 min
- time of immobile phase (sec/4 min) ([5]; P.O., s.i.d. × 21 days, 7.5 mg/kg): 69 ± 45 sec/4 min
- time of immobile phase (sec/4 min) ([5]; P.O., s.i.d. × 21 days, 15.0 mg/kg): 92 ± 66 sec/4 min
- time of mobile phase vs. control (in words) ([5]; administration in 21 successive days): prolonged the mobile time significantly
- anti-depression activity in forced swimming test (in words) ([5]; mice): has anti-depression activity
- time of mobile phase vs. control (in words) ([5]; single dosing 1.5, 5, and 15 mg/kg): did not prolong the time of mobile phase
- time of immobile phase (sec/4 min) ([5]; single dosing, P.O., 0.5 hr, 1.5 mg/kg): 93 ± 39 sec/4 min
- time of immobile phase (sec/4 min) ([5]; single dosing, P.O., 0.5 hr, 5.0 mg/kg): 101 ± 52 sec/4 min
- time of immobile phase (sec/4 min) ([5]; single dosing, P.O., 0.5 hr, 15.0 mg/kg): 97 ± 43 sec/4 min
- time of mobile phase vs. control (in words) ([5]; three times a day, 1.5 mg/kg group): showed significance
- time of mobile phase vs. control (in words) ([5]; three times a day, 0.5 and 5 mg/kg groups): did not show significance though prolonged the mobile time

SMILES: CC(C)CCC1=CCC[C@@]2(C)CC[C@@H]3C[C@]12OC3(C)C [Example 5, (1R,6S,9R)6,10,10-Trimethyl-2-isopentyl-11-oxatricyclo[7.2.1.0^1,6]dodec-2-ene]
- melting point: 38 to 39 °C

SMILES: CC1(C)O[C@]23C[C@H]1CC[C@]2(C)CCC=C3Cc1ccc(Cl)cc1 [Example 10, (1R,6S,9R)6,10,10-Trimethyl-2-(4-chlorobenzyl)-11-oxatricyclo[7.2.1.0^1,6]dodec-2-ene]
- melting point: 87 to 88 °C

SMILES: CCCC[C@]1(O)CCC[C@@]2(C)CC[C@@H]3C[C@@]21OC3(C)C [Example 16, (1R,2S,6S,9R)6,10,10-Trimethyl-2-butyl-2-hydroxy-11-oxatricyclo[7.2.1.0^1,6]dodecane]
- melting point: 70 to 72 °C

SMILES: CCCC[C@@]1(O)CCC[C@@]2(C)CC[C@@H]3C[C@@]21OC3(C)C [Example 21, (1R,2R,6S,9R)6,10,10-Trimethyl-2-butyl-2-hydroxy-11-oxatricyclo[7.2.1.0^1,6]dodecane]
- melting point: 90 to 92 °C

SMILES: CCCC[C@H]1[C@@H](O)CC[C@@]2(C)CC[C@@H]3C[C@]12OC3(C)C [Example 22, (1S,2S,3S,6R,9R)6,10,10-Trimethyl-2-butyl-3-hydroxy-11-oxatricyclo[7.2.1.0^1,6]dodecane]
- melting point: 47 to 48 °C

SMILES: CCCC[C@H]1C(=O)CC[C@@]2(C)CC[C@@H]3C[C@]12OC3(C)C [Example 23, (1S,2R,6R,9R)6,10,10-Trimethyl-2-butyl-11-oxatricyclo[7.2.1.0^1,6]dodecan-3-one]
- melting point: 64 to 66 °C

Other lines, results leading:

- melting point: 49 to 50 °C
SMILES: CC1(C)O[C@]23C[C@H]1CC[C@]2(C)CCC=C3Cc1ccccc1 [Example 7, (1R,6S,9R)6,10,10-Trimethyl-2-benzyl-11-oxatricyclo[7.2.1.0^1,6]dodec-2-ene]

- melting point: 131 to 133 °C
SMILES: CC1(C)O[C@]23C[C@H]1CC[C@]2(C)CCC=C3Cc1ccc(F)cc1 [Example 8, (1R,6S,9R)6,10,10-Trimethyl-2-(4-flurobenzyl)-11-oxatricyclo[7.2.1.0^1,6]dodec-2-ene]

- melting point: 34 to 36 °C
SMILES: CC1(C)O[C@]23C[C@H]1CC[C@]2(C)CCC=C3CCO [Example 11, (1R,6S,9R)6,10,10-Trimethyl-2-(2-hydroxyethyl)-11-oxatricyclo[7.2.1.0^1,6]dodec-2-ene]

- melting point: 68 to 70 °C
SMILES: CC1(C)O[C@]23C[C@H]1CC[C@]2(C)CC[C@](C)(O)C3 [Example 24, (1S,3S,6R,9R)3,6,10,10-Tetramethyl-3-hydoxy-11-oxatricyclo[7.2.1.0^1,6]dodecane]

- melting point: 59 to 62 °C
SMILES: CC(=O)CCC1=CCC[C@@]2(C)CC[C@@H]3C[C@]12OC3(C)C [Example 29, (1R,6S,9R)6,10,10-Trimethyl-2-(3-oxobutyl)-11-oxatricyclo[7.2.1.0^1,6]dodec-2-ene]

- melting point: 38 to 39 °C
SMILES: CC1=C[C@@]23C[C@@H](CC[C@]2(C)CC1)C(C)(C)O3 [Example 32, (1S,6R,9R)3,6,10,10-Tetramethyl-11-oxatricyclo[7.2.1.0^1,6]dodec-2-ene]
